# In article PMC5641094, “A peptide antagonist of Prep1-p160 interaction improves ceramide-induced insulin resistance in skeletal muscle cells” (Oncotarget, 2017):
# Key:
# p160_20-160 = molecular target: T1, p160_20-160 (Homo sapiens, UniProt Q9BQG0); test: ELISA-like direct binding of biotinylated Prep1 peptides to coated p160_20-160; conditions: N-terminally biotinylated peptide variants; plate coated with p160_20-160 (0.1μM); streptavidin-HRP; one-site binding fit; triplicate, performed at least twice
# T1 construct: were added to a plate coated with p160_20-160 (0.1μM); His6; made in house
# T1 sequence (Q9BQG0 20-160): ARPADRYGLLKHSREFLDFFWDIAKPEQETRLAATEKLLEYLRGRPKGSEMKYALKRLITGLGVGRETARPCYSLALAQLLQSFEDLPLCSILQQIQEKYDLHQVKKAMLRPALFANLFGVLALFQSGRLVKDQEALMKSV
# Text: To address the significance of the association between Prep1 and p160 mediated by C2cer, we generated a synthetic inhibitor of the Prep1/p160 interaction. […] The synthetic peptide covering such stretch of residues was therefore chosen to generate a potential inhibitor. […] Thus, we designed and chemically synthesized a peptide spanning residues 59-72, hereafter Prep1(59-72), which comprises the predicted α-helix and a short loop at the N-terminus (Supplementary Figure 2A, upper panel). […]
# Figure 3 Design and in vitro effects of Prep1(54-72) peptide on Prep1/p160 association (A) Binding curves of Prep1(59-72) and Prep1(54-72) peptides to p160_20-160 by ELISA-like assays. […] (C) L6 cells were incubated with increasing concentrations of the fluorescein-conjugated peptide (FITC-Prep1(54-72)) and peptide uptake was detected by FACS analysis of fluorescein-labeled cells. […] Protein lysates were immunoprecipitated with Prep1 antibodies and analyzed by Western blot using antibodies for p160 or for Prep1. […] The blots were detected by ECL and autoradiography. […]
# ELISA experiments were performed using an integrated platform for High-Throughput Screening (Hamilton Robotics, Bonaduz, CH) comprising a fully equipped Starlet 8 channel liquid handler, a robotic arm, a washer and a multi-wavelength plate reader. […] The binding was detected by anti-His HRP-conjugated antibody. […]
# Akt phosphorylation = test: Akt phosphorylation, Western blot; assay type: cell-based, rat; conditions: L6 cells with C2cer 10μM or Prep1 transfection, insulin 100nM
# Protocol: Figure 5 Effect of Prep1(54-72) peptide on Akt phosphorylation and PGC-1α and GLUT4 protein levels (A-B) L6 control and Prep1 overexpressing cells were stimulated with Insulin (100nM) and/or C2cer (10μM) and incubated with Prep1(54-72). Protein lysates were analyzed by Western blot using antibodies for pAkt, Akt and for the beta-actin, as a loading control. (C) PGC-1α and GLUT4 protein levels were measured by using specific antibodies for these proteins and beta-actin antibody was used as loading control. Blots were detected by ECL and autoradiography. The autoradiographs are representative of four independent experiments. Asterisks denote statistically significant differences (*p<0.05; **p<0.01; ***p<0.001).
# Total cell lysates were obtained and separated by SDS-PAGE. Briefly, cells were solubilized with lysis buffer containing 50mM HEPES, 150mM NaCl, 10mM EDTA, 10mM Na4P2O7, 2mM sodium orthovanadate, 50mM NaF, 1mM phenylmethylsulfonyl fluoride, 10μg/ml aprotinin, 10μg/ml leupeptin, pH 7.4, and 1% (v/v) Triton X-100. Lysates were clarified by centrifugation at 12,000g for 20 minutes at 4°C. The protein concentrations in the cell lysates were measured using a Bio-Rad DC (detergent compatible) assay. Immunoprecipitation and Western blot analysis have been performed as previously described.
substance,measurement,setting,value
Ac-KQAIYRHPLFPLLALLFEK-NH2 [Prep1(54-72)],Kd,p160_20-160,180 nM
same,effect on insulin stimulated Akt phosphorylation,Akt phosphorylation,rescued insulin effect
